Tests used:
Assay type in all cases: functional
3T3-L1 [1] = assay: In vitro measurements 2-Deoxyglucose (2DG) uptake in vehicle treated 3T3-L1 adipocytes at 100 uM dose.
Mus musculus [2] = assay: In vivo hypoglycemic activity expressed as glucose lowering relative to positive control in 6-8 week old C57BL/6J ob/ob mouse at 10 mg/kg
Mus musculus [3] = assay: compound was tested in vivo for hypoglycemic activity expressed as Glucose lowering relative to positive control in 6-8 week old C57BL/6J ob/ob mouse at 50 mg/kg
Rattus norvegicus [4] = organism: Rattus norvegicus; assay: Inhibition of gluconeogenesis in rat
3T3-L1 [5] = assay: Acute effects in vitro by measuring 2-deoxyglucose (2DG) uptake in vehicle treated 3T3-L1 adipocytes at 10 uM dose.
3T3-L1 [6] = assay: compound was evaluated for their acute effects in vitro by measuring 2-Deoxyglucose (2DG) uptake in vehicle treated 3T3-L1 adipocytes at 1 uM dose.
3T3-L1 [7] = assay: Acute effects in vitro by measuring 2-deoxyglucose (2DG) uptake in vehicle treated 3T3-L1 adipocytes at 30 uM dose.
3T3-L1 [8] = assay: In vitro by measurements of 2-Deoxyglucose (2DG) uptake in vehicle treated 3T3-L1 adipocytes at 3 uM dose.
L6 = assay: compound was evaluated for their acute effects in vitro by measuring 2-Deoxyglucose (2DG) uptake in vehicle treated L6 […] at 60 uM dose.
Mus musculus [9] = assay: compound was tested in vivo for hypoglycemic activity expressed as Glucose lowering relative to positive control in 6-8 week old C57BL/6J ob/ob mouse at 25 mg/kg
3T3-L1 [10] = assay: In vitro measurements of 2-Deoxyglucose (2DG) uptake in vehicle treated 3T3-L1 adipocytes at 60 uM dose.
3T3-L1 [11] = assay: compound was evaluated for their acute effects in vitro by measuring 2-Deoxyglucose (2DG) uptake in vehicle treated 3T3-L1 adipocytes at concentration of 10 micro M
3T3-L1 [12] = assay: compound was evaluated for their acute effects in vitro by measuring 2-Deoxyglucose (2DG) uptake in vehicle treated 3T3-L1 adipocytes at concentration of 3 micro M
3T3-L1 [13] = assay: compound was evaluated for their acute effects in vitro by measuring 2-Deoxyglucose (2DG) uptake in vehicle treated 3T3-L1 adipocytes at concentration of 30 micro M
Mus musculus [14] = assay: compound was tested in vivo for hypoglycemic activity expressed as Glucose lowering relative to positive control in 6-8 week old C57BL/6J ob/ob mouse at 0.5 mg/kg
Mus musculus [15] = assay: In vivo hypoglycemic activity expressed as glucose lowering relative to positive control in 6-8 week old C57BL/6J ob/ob mouse at 1 mg/kg.
Mus musculus [16] = assay: In vivo hypoglycemic activity expressed as glucose lowering relative to positive control in 6-8 week old C57BL/6J ob/ob mouse at 5 mg/kg.
3T3-L1 [17] = assay: compound was evaluated for their acute effects in vitro by measuring 2-Deoxyglucose (2DG) uptake in vehicle treated 3T3-L1 adipocytes at 3 uM dose.
3T3-L1 [18] = assay: compound was evaluated for their acute effects in vitro by measuring 2-Deoxyglucose (2DG) uptake in vehicle treated 3T3-L1 adipocytes at 30 uM dose.
Mus musculus [19] = assay: compound was tested in vivo for hypoglycemic activity in 6-8 week old C57BL/6J ob/ob mouse at 10 mg/kg
Rattus norvegicus [20] = organism: Rattus norvegicus; assay: Compound was tested for inhibition of gluconeogenesis; details: Rattus norvegicus; read-out: ED50
3T3-L1 [21] = assay: compound was evaluated for their acute effects in vitro by measuring 2-Deoxyglucose (2DG) uptake in vehicle treated 3T3-L1 adipocytes at 100 uM dose.
Mus musculus [22] = assay: compound was tested in vivo for hypoglycemic activity in 6-8 week old C57BL/6J ob/ob mouse at 50 mg/kg
Mus musculus [23] = assay: compound was tested in vivo for hypoglycemic activity in 6-8 week old C57BL/6J ob/ob mouse at 25 mg/kg
[24] = Rattus norvegicus, read-out: ED50

**Q.** What does the source list for CC(C)c1ccc(OC(Cc2ccc(Br)cc2)C(=O)O)cc1 (stereo unspecified)?
**A.** Basal uptake (3T3-L1 [1]): 203%; Hypoglycemic activity (Mus musculus [2]): <0%; Hypoglycemic activity (Mus musculus [3]): 122%; ED50 (Rattus norvegicus [4]; [24]): 10 mg/kg

**Q.** For CCC(c1ccc(Cl)cc1)C(C)(Oc1ccc(C(C)C)cc1)C(=O)O (stereo in doubt; 87), which Basal uptake (3T3-L1 [5]) is on record?
**A.** 96%

**Q.** What about the Basal uptake (3T3-L1 [6]) of the same molecule?
**A.** 98%

**Q.** What about the Basal uptake (3T3-L1 [7]) of the same molecule?
**A.** 109%

**Q.** What about the Hypoglycemic activity (Mus musculus [2]; 10 mg/kg) of the same molecule?
**A.** 32%

**Q.** What about the ED50 (Rattus norvegicus [4]) of the same molecule?
**A.** >10 mg/kg

**Q.** CC(C)c1ccc(OC(C)(Cc2ccccc2-c2ccccc2)C(=O)[O-])cc1.[Na+] (stereo unspecified) was tested. Which Basal uptake (3T3-L1 [5]) did it give?
**A.** 228%

**Q.** What about the Basal uptake (3T3-L1 [6]) of the same molecule?
**A.** 97%

**Q.** And the Basal uptake (3T3-L1 [7])?
**A.** 167%

**Q.** What about the Basal uptake (3T3-L1 [8]) of the same molecule?
**A.** 148%

**Q.** And the Hypoglycemic activity (Mus musculus [2])?
**A.** 54%

**Q.** And the ED50 (Rattus norvegicus [4]; [24])?
**A.** 10 mg/kg

**Q.** Which results are given for COc1ccc(OC(Cc2ccc(Cl)cc2)C(=O)O)cc1 (stereo unspecified)?
**A.** Basal uptake (L6): 98%; Hypoglycemic activity (Mus musculus [9]): 23%; ED50 (Rattus norvegicus [4]; [24]): > 25 mg/kg

**Q.** Which results are given for CCCc1ccc(CC(C)(Oc2ccc(C(C)C)cc2)C(=O)[O-])cc1.[Na+] (stereo unspecified)?
**A.** Basal uptake (3T3-L1 [7]): 97%; Basal uptake (3T3-L1 [10]): 282%; Basal uptake (3T3-L1 [11]): 100%; Basal uptake (3T3-L1 [12]): 103%; Basal uptake (3T3-L1 [13]): 233%; Hypoglycemic activity (Mus musculus [14]): 69%; Hypoglycemic activity (Mus musculus [2]): 113%; Hypoglycemic activity (Mus musculus [15]): 70%; Hypoglycemic activity (Mus musculus [16]): 134%; ED50 (Rattus norvegicus [4]; [24]): 0.5 mg/kg

**Q.** With CC(C)c1ccc(OC(C)(Cc2ccc(C(F)(F)F)cc2)C(=O)O)cc1 (stereo unspecified) as the molecule, how does the Basal uptake (L6) read?
**A.** 103%

**Q.** What about the Hypoglycemic activity (Mus musculus [16]) of the same molecule?
**A.** 65%

**Q.** What about the ED50 (Rattus norvegicus [4]; [24]) of the same molecule?
**A.** < 5 mg/kg

**Q.** Which Basal uptake (3T3-L1 [5]) does the source give for CC(Cc1ccc(Cl)cc1)(Oc1ccc(C2CCSc3ccccc32)cc1)C(=O)[O-].[Na+] (stereo unspecified) here?
**A.** 118%

**Q.** And the Basal uptake (3T3-L1 [6])?
**A.** 98%

**Q.** What about the Basal uptake (3T3-L1 [7]) of the same molecule?
**A.** 157%

**Q.** What about the Basal uptake (3T3-L1 [8]) of the same molecule?
**A.** 130%

**Q.** What about the Hypoglycemic activity (Mus musculus [2]) of the same molecule?
**A.** 38%

**Q.** What about the ED50 (Rattus norvegicus [4]; [24]) of the same molecule?
**A.** 10 mg/kg

**Q.** CCc1ccc(CC(C)(Oc2ccc(C(=O)c3ccccc3)cc2)C(=O)O)cc1 (stereo unspecified) was tested. Which Hypoglycemic activity (Mus musculus [14]) did it give?
**A.** 60%

**Q.** What about the Hypoglycemic activity (Mus musculus [2]) of the same molecule?
**A.** 107%

**Q.** What about the Hypoglycemic activity (Mus musculus [15]) of the same molecule?
**A.** 65%

**Q.** What about the Hypoglycemic activity (Mus musculus [16]) of the same molecule?
**A.** 108%

**Q.** What about the ED50 (Rattus norvegicus [4]; [24]) of the same molecule?
**A.** 0.5 mg/kg

**Q.** Which results are given for CC(C)c1ccc(OC(C)(Cc2ccccc2)C(=O)[O-])cc1.[Na+] (stereo unspecified)?
**A.** Basal uptake (3T3-L1 [5]): 126%; Basal uptake (3T3-L1 [6]): 100%; Basal uptake (3T3-L1 [17]): 162%; Hypoglycemic activity (Mus musculus [2]): 3%; ED50 (Rattus norvegicus [4]; [24]): > 10 mg/kg

**Q.** CC(C)c1ccc(OC(C)(Cc2ccc(-c3ccccc3)cc2)C(=O)[O-])cc1.[Na+] (stereo unspecified) was tested. Which Basal uptake (3T3-L1 [5]) did it give?
**A.** 129%

**Q.** What about the Basal uptake (3T3-L1 [7]) of the same molecule?
**A.** 126%

**Q.** What about the Basal uptake (3T3-L1 [8]) of the same molecule?
**A.** 122%

**Q.** What about the Hypoglycemic activity (Mus musculus [14]) of the same molecule?
**A.** 21%

**Q.** And the Hypoglycemic activity (Mus musculus [2])?
**A.** 116%

**Q.** And the Hypoglycemic activity (Mus musculus [15])?
**A.** 58%

**Q.** And the Hypoglycemic activity (Mus musculus [16])?
**A.** 93%

**Q.** And the ED50 (Rattus norvegicus [4]; [24])?
**A.** 1 mg/kg

**Q.** For O=C(O)C(Cc1ccc(Cl)cc1)Oc1ccccc1 (stereo unspecified), which Basal uptake (3T3-L1 [10]) is on record?
**A.** 100%

**Q.** And the Basal uptake (L6)?
**A.** 86%

**Q.** What about the Hypoglycemic activity (Mus musculus [9]) of the same molecule?
**A.** <0%

**Q.** And the ED50 (Rattus norvegicus [4]; [24])?
**A.** > 25 mg/kg

**Q.** CC(C)c1ccc(OC(C)(Cc2cccc(-c3ccccc3)c2)C(=O)[O-])cc1.[Na+] (stereo unspecified) was tested. Which Basal uptake (3T3-L1 [5]) did it give?
**A.** 76%

**Q.** And the Basal uptake (3T3-L1 [8])?
**A.** 87%

**Q.** What about the Basal uptake (3T3-L1 [11]) of the same molecule?
**A.** 118%

**Q.** And the Basal uptake (3T3-L1 [12])?
**A.** 109%

**Q.** And the Basal uptake (3T3-L1 [13])?
**A.** 193%

**Q.** And the Basal uptake (3T3-L1 [18])?
**A.** 118%

**Q.** And the Hypoglycemic activity (Mus musculus [14])?
**A.** 46%

**Q.** What about the Hypoglycemic activity (Mus musculus [2]) of the same molecule?
**A.** 83%

**Q.** And the Hypoglycemic activity (Mus musculus [15])?
**A.** 78%

**Q.** And the Hypoglycemic activity (Mus musculus [16])?
**A.** 110%

**Q.** What about the ED50 (Rattus norvegicus [4]; [24]) of the same molecule?
**A.** 0.5 mg/kg

**Q.** With CCc1cccc(CC(C)(Oc2ccc(C(C)C)cc2)C(=O)[N-]S(=O)(=O)C(F)(F)F)c1.[Na+] (stereo unspecified) as the molecule, how does the Hypoglycemic activity (Mus musculus [19]) read?
**A.** 43%

**Q.** And the ED50 (Rattus norvegicus [20])?
**A.** > 10 mg/kg

**Q.** What does the source list for CC(C)c1ccc(OC(C)(C(=O)NS(=O)(=O)C(F)(F)F)C(C)c2ccc(Cl)cc2)cc1 (stereo unspecified)?
**A.** Basal uptake (3T3-L1 [5]): 248%; Basal uptake (3T3-L1 [6]): 94%; Basal uptake (3T3-L1 [7]): 113%; Hypoglycemic activity (Mus musculus [2]): 7%; ED50 (Rattus norvegicus [4]; [24]): > 10 mg/kg

**Q.** For CC(C)c1ccc(OC(Cc2ccc(Cl)cc2Cl)C(=O)O)cc1 (stereo unspecified), which Basal uptake (3T3-L1 [1]) is on record?
**A.** 222%

**Q.** And the Hypoglycemic activity (Mus musculus [2])?
**A.** 30%

**Q.** And the Hypoglycemic activity (Mus musculus [3])?
**A.** 70%

**Q.** And the Hypoglycemic activity (Mus musculus [16])?
**A.** 45%

**Q.** And the ED50 (Rattus norvegicus [4]; [24])?
**A.** 10 mg/kg

**Q.** With Cc1ccccc1S(=O)(=O)[N-]CC(C)(Cc1ccc(Cl)cc1)Oc1ccc(C(C)C)cc1.[Na+] (stereo unspecified) as the molecule, how does the Hypoglycemic activity (Mus musculus [19]) read?
**A.** 7%

**Q.** What about the ED50 (Rattus norvegicus [20]) of the same molecule?
**A.** 10 mg/kg

**Q.** For C1CCC(NC2CCCCC2)CC1.CC(C)c1ccc(OC(Cc2cccc(Cl)c2)C(=O)O)cc1 (stereo unspecified), which Basal uptake (3T3-L1 [21]) is on record?
**A.** 160%

**Q.** What about the Hypoglycemic activity (Mus musculus [22]) of the same molecule?
**A.** 32%

**Q.** What about the ED50 (Rattus norvegicus [20]) of the same molecule?
**A.** > 50 mg/kg

**Q.** How did the Basal uptake (3T3-L1 [21]) turn out when C1CCC(NC2CCCCC2)CC1.CC(C)c1ccc(OC(CCc2ccc(Cl)cc2)C(=O)O)cc1 (stereo unspecified) was run?
**A.** 89%

**Q.** And the Basal uptake (L6)?
**A.** 89%

**Q.** And the Hypoglycemic activity (Mus musculus [23])?
**A.** 64%

**Q.** And the ED50 (Rattus norvegicus [20])?
**A.** < 25 mg/kg
